Reference: ChEMBL document CHEMBL1697781, “Assessment of the health effects of chemicals in humans: II. Construction of an adverse effects database for QSAR modeling” (Curr Drug Discov Technol, 2004)

What was measured:
Conditions in all cases: human; call rule not given here
Hepatotoxicity [1] = test: FDA HLAED, gamma-glutamyl transferase (GGT) increase
Hepatotoxicity [2] = test: FDA HLAED, serum glutamic oxaloacetic transaminase (SGOT) increase
Hepatotoxicity [3] = test: FDA HLAED, lactate dehydrogenase (LDH) increase
Hepatotoxicity [4] = test: FDA HLAED, serum glutamic pyruvic transaminase (SGPT) increase
Hepatotoxicity [5] = test: FDA HLAED, liver enzyme composite activity
Hepatotoxicity [6] = test: FDA HLAED, alkaline phosphatase increase

SMILES | GGT Increase - Activity Score (Hepatotoxicity [1]) | GGT Increase - Index Value (Hepatotoxicity [1]) | GGT Increase - Number of Reports (Hepatotoxicity [1]) | SGOT Increase - Activity Score (Hepatotoxicity [2]) | SGOT Increase - Index Value (Hepatotoxicity [2]) | SGOT Increase - Number of Reports (Hepatotoxicity [2]) | LDH Increase - Activity Score (Hepatotoxicity [3]) | LDH Increase - Index Value (Hepatotoxicity [3]) | LDH Increase - Number of Reports (Hepatotoxicity [3]) | SGPT Increase - Activity Score (Hepatotoxicity [4]) | SGPT Increase - Index Value (Hepatotoxicity [4]) | SGPT Increase - Number of Reports (Hepatotoxicity [4]) | Composite Activity - Active (Hepatotoxicity [5]) | Composite Activity - Marginal (Hepatotoxicity [5]) | Composite Activity - Score (Hepatotoxicity [5]) | Alkaline Phosphatase Increase - Activity Score (Hepatotoxicity [6]) | Alkaline Phosphatase Increase - Index Value (Hepatotoxicity [6]) | Alkaline Phosphatase Increase - Number of Reports (Hepatotoxicity [6]) | further results
CC[N+](C)(C)Cc1ccccc1Br.Cc1ccc(S(=O)(=O)[O-])cc1 [BRETYLIUM TOSYLATE] | Inactive | 0 | < 4 | Inactive | 0 | < 4 | Inactive | 0 | < 4 | Inactive | 0 | < 4 | 0 | 0 | Inactive | Inactive | 0 | < 4 | –
Brc1c(NC2=NCCN2)ccc2nccnc12 [BRIMONIDINE] | Inactive | 0 | < 4 | Inactive | 1.1 | < 4 | Inactive | 0 | < 4 | Inactive | 0 | < 4 | – | – | – | Inactive | 0 | < 4 | Composite Activity - Active (Hepatotoxicity [5]; Liver): 0; Composite Activity - Marginal (Hepatotoxicity [5]; Liver): 0; Composite Activity - Score (Hepatotoxicity [5]; Liver): Inactive
CC(C)C[C@H]1C(=O)N2CCC[C@H]2[C@]2(O)O[C@](NC(=O)[C@@H]3C=C4c5cccc6[nH]c(Br)c(c56)C[C@H]4N(C)C3)(C(C)C)C(=O)N12 [BROMOCRIPTINE] | Inactive | 0 | < 4 | Inactive | 0 | < 4 | Inactive | 0 | < 4 | Inactive | 0 | < 4 | 0 | 0 | Inactive | Inactive | 0 | < 4 | –
CCCC1O[C@@H]2C[C@H]3[C@@H]4CCC5=CC(=O)C=C[C@]5(C)[C@H]4[C@@H](O)C[C@]3(C)[C@]2(C(=O)CO)O1 (some centres not stated) [BUDESONIDE] | Inactive | 0 | < 4 | Inactive | 0 | < 4 | Inactive | 0 | < 4 | Inactive | 0 | < 4 | 0 | 0 | Inactive | Inactive | 0.2 | < 4 | –
